From patent US9415036B2, “Pharmaceutical composition for use in the treatment or prevention of osteoarticular diseases” (BONE THERAPEUTICS, priority 2008, dated 2016) come the findings set out here.

Assay type in all cases: cell-based, human
In experiment [1] the test system is PBMC (Peripheral blood mononuclear cells). In words: Proliferation assay (3H-thymidine) of PBMC. As to the method: (§1) PBMCs (Peripheral blood mononuclear cells) from heparinized venous blood of healthy volunteers were isolated by Ficoll-gradient centrifugation. MNC (Mononuclear cells) were washed three times in PBS and resuspended in RPMI-1640 medium supplemented with 100 U/mL penicillin, 100 μg/mL streptomycin, and 10% heat-inactivated FBS (Fetal Bovine Serum). Cells were seeded at 100.000 cells in 96-wel plate in a total volume of 200 μL/well.
(§2) PBMC, at 100.000 cells/200 μL, were plated in 96-well microtiter plates and stimulated or not with 10 μg/mL phytohemagglutinin (PHA). Effects of hyaluronic acid “HA” (200 μg/mL) and p-aminoclonidine “A2A” (5 μM) were tested on PBMC.
MSC (Mesenchymal stromal cells) were derived from 20 to 60 mL of heparinized bone marrow (BM) obtained from the iliac crest of healthy volunteers. BM was mixed with phosphate-buffered saline (PBS, 2v:v) and layered on density gradient Ficoll solution. After centrifugation, mononuclear cells were harvested from the interface and washed twice in PBS. Cells were resuspended in standard MEM medium supplemented with 15% FBS. The cells were plated at 2×10^6 cells/75 cm2 flasks and maintained in a 37° C. humidified atmosphere containing 5% CO2. Cells were allowed to attach for 24 hours prior an initial medium change. Cells were detached at day 10 using trypsin-EDTA solution for 1-5 min at 37° C. Then, cells were irradiated (10 minutes at 2200Ci) before seeding in 96-well for proliferative assays at 12.500 cells/well to obtain a ratio 1:8 (MSC:PBMC).
The culture was incubated with 1 μCi/mL 3H-thymidine for 24 hours before end of culture to measure the proliferation. Then, cells were washed twice with ice-cold PBS and twice with ice-cold 5% trichloroacetic acid (TCA). Finally, cells were lysed with 0.1N NaOH-0.1% Triton-X100. Supernatants were collected and analyzed on a beta-counter in presence of scintillation liquid. Results were done in cpm (“count per minute”=disintegration number of radioactive element observed in series of successive counts of one minute). IL-1β (beta) detection (By ELISA). Levels of IL-1β from PBMC or culture supernatants were measured by Quantikine ELISA kit (R&D Systems Inc, Mineapolis, USA). The minimum detectable concentration of IL-1β was estimated at 1.0 pg/mL.
The release of IL-1 beta by PBMC and the proliferation of PBMC, induced by PHA stimulation, were set as controls, and compared with the measures for PBMC treated with HA and/or A2A.

The test system of a further experiment is IL-1β. In words: IL-1β detection (ELISA) in PBMC culture supernatants. The procedure: as §1, §2
MSC (Mesenchymal stromal cells) were derived from 20 to 60 mL of heparinized bone marrow (BM) obtained from the iliac crest of healthy volunteers. BM was mixed with phosphate-buffered saline (PBS, 2v:v) and layered on density gradient Ficoll solution. After centrifugation, mononuclear cells were harvested from the interface and washed twice in PBS. […]
The culture was incubated with 1 μCi/mL 3H-thymidine for 24 hours before end of culture to measure the proliferation. […] Supernatants were collected and analyzed on a beta-counter in presence of scintillation liquid. […] Levels of IL-1β from PBMC or culture supernatants were measured by Quantikine ELISA kit (R&D Systems Inc, Mineapolis, USA). […]
Background: In an ELISA, binding on a coated surface is turned into a signal by an enzyme label.

For another experiment, the system named is MSCs. In words: MSCs cultured in chondrogenic medium, pellets stained with Alcian blue / Nuclear fast red. The settings on record: HA 200 μg/ml, A2A 5 μMol. As to the method:
MSCs were culture in chondrogenic medium for 7, 14 and 21 days and 4 conditions were tested • control • A2A: 5 μMol aminoclonidine • HA: 200 μg/ml of hyaluronic acid • HA+A2A: 200 μg/ml of hyaluronic acid and 5 μMol aminoclonidine
At day 14 and 21, pellets were fixed in 10% buffered formalin for 6 hours, and washed twice in PBS. Pellets were then embedded in OCT (Sakura Finetek, Belgium). Sections were cut at a thickness of 5 μm and were stained with Alcian blue, before counterstained with Nuclear fast red (Klinipath, Belgium)
GAGs will be stained blue, while Nuclear fast red will counterstain cells nuclei in pink or red, and cytoplasm in pale pink. In brief, the procedure is 1) Stain in alcian blue solution for 30 minutes; 3) Wash in running tap water for 2 minutes; 4) Rinse in distilled water; 5) Counterstain in nuclear fast red solution for 5 minutes; 6) Wash in running tap water for 1 minute; 7) Dehydrate through 95% alcohol, and 2 changes of absolute alcohol, 3 minutes each; 8) clear in Ultraclear, a xylene substitute (Klinipath, Belgium); 9) Mount with Ultrakit mounting medium (Klinipahth, Belgium). Toluidine blue stains proteoglycan in red-purple (metachromatic staining) and the nucleus in blue (orthochromatic staining). Metachromasia, tissue elements staining a different color from the dye solution, is due to the pH, dye concentration and temperature of the basic dye. […]

The mark [2] stands for this setting: basal (unstimulated) conditions.

Several values for one entry are separate records, joined by “and”; a condition that tells them apart may be missing. Equal entries are not always repeated.

Turning to `Nc1cc(Cl)c(N=C2NCCN2)c(Cl)c1` [A2A, p-aminoclonidine], the Proliferation is 16212 cpm in experiment [1] (PBMC stimulated with 10 μg/mL PHA, HA 200 μg/mL, A2A 5 μM, MSC:PBMC 1:8); 101% and 100% in experiment [1] (PHA stimulated PBMC, PBMC + PHA set at 100); 786 cpm in experiment [1] (unstimulated PBMC, HA 200 μg/mL, A2A 5 μM, MSC:PBMC 1:8); 4.9% in experiment [1] (unstimulated PBMC, PBMC + PHA set at 100). In addition, the “effect on PBMC proliferation” value was “not able to inhibit” in experiment [1] (PHA stimulated PBMC) and “no effect” in experiment [1] (setting [2]). The figures for the “effect on IL-1beta secretion” value in the experiment with IL-1β (PHA stimulated PBMC) and in the experiment with IL-1β (setting [2]) were “totally suppressed” and “no effect”, respectively. In addition, the “matrix (mucopolysaccharides and glycosaminoglycans) content / production, Alcian blue staining” value in the experiment with MSCs is recorded as “almost absent”.
